Positions of bridges follow the written chain, without caps; N, C: chain ends. Non-standard residues stand in square brackets, D forms with d. Residues, ends and D or L forms follow the SMILES beside them. Phe(4-OC2H4NH2,2,3-(CH2)3) = NCCOc1ccc(C[C@H](N)C(=O)O)c2c1CCC2; Trp(7-cPr) = N[C@@H](Cc1c[nH]c2c(C3CC3)cccc12)C(=O)O; 2Nal = N[C@@H](Cc1ccc2ccccc2c1)C(=O)O; Thp(SO2) = NC1(C(=O)O)CCS(=O)(=O)CC1; 3Pal = N[C@@H](Cc1cccnc1)C(=O)O; Pen = CC(C)(S)[C@H](N)C(=O)O; Sar = CNCC(=O)O
What was measured:
IL-23R = molecular target: T1, IL-23R (Homo sapiens, UniProt Q5VWK5); experiment: IL-23R reporter gene assay (HEK-blue IL23 reporter gene cell line, rhIL23 stimulation); assay type: cell-based; settings: Inhibition of IL-23R, rhIL23 1 ng/mL, 24 hours
T1 construct: host or cells: HEK-blue IL23 reporter gene cell line
T1 sequence (Q5VWK5 24-629): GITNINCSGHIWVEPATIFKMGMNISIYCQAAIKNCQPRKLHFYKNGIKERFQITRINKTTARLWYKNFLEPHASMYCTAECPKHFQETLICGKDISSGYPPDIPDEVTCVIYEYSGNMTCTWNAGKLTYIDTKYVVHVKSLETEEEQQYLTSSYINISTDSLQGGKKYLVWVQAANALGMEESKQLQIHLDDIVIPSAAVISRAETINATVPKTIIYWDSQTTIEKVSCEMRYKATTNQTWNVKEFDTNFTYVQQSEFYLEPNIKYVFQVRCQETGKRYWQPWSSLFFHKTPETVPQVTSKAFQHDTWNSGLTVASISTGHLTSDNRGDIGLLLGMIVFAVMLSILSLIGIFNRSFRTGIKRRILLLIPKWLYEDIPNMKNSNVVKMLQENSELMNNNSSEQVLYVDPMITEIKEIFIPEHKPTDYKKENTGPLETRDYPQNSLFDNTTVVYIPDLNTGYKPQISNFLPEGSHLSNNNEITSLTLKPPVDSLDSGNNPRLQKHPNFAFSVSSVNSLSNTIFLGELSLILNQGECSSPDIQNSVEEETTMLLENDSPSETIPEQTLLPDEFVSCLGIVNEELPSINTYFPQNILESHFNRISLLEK
Method: 2. IL-23R reporter gene assay
The purpose of this assay was to assess the ability of compounds to inhibit the binding of IL23p19 to IL23R in a reporter gene system. The HEK-blue IL23 reporter gene cell line (Invivogen, hkb-il23) was cultured in DMEM + 10% FBS + 100 ug/mL Normocin medium. When the cell density reached 80%-90%, 5000 cells/well were plated into a 384-well plate, and the plate was incubated overnight at 37°C with 5% CO2. Then, the compound stock solution was diluted in DMSO, and 40 nL of the dilution was transferred into the 384-well culture plate by Echo. The plate was incubated at 37°C with 5% CO2 for 0.5 hours. 40 nL/well of rhIL23 (R&D, 1290-IL) was added to the 384-well cell culture plate at a final concentration of 1 ng/mL, and the plate was incubated at 37°C with 5% CO2 for 24 hours. 18 µL of Quanti-Blue™ solution was added to a new 384-well plate. 2 µL/well of cell culture supernatant was transferred into the 384-well plate prepared in Step 6, and the plate was incubated at 37°C with 5% CO2 for 1 hour. Absorbance values at […] were read on BMG. The binding ability of the compounds was assessed using the following formula, and IC50 values were obtained by fitting with Graphpad.
(§1) Calculation formula of inhibition rate: [formula] • where Data negative: mean of DMSO control group; and • Data positive: mean of non-IL23-stimulated group
The calculation formula of IC50 was as follows: Y = Bottom + (Top−Bottom)/(1+10^(∧)((LogIC50−X)*HillSlope)) [formula] • where X: concentration of compound; and • Y: inhibition rate of compound Table 2. Inhibition of IL-23R by test compounds

IL-23α/IL-12β and IL-23R = molecular target: T2, IL-23α/IL-12β and IL-23R (Homo sapiens, UniProt Q5VWK5); experiment: IL-23α/IL-12β and IL-23R binding assay (TR-FRET/HTRF); settings: inhibition of the binding of IL-23α/IL-12β to IL-23R, TR-FRET; both proteins 0.3 nM
T2 construct: purchased ACRO ILR-H82F3 (IL-23R); ILB-H52W5 (IL-23α/IL-12β)
T2 sequence (Q5VWK5 24-353 limits assumed): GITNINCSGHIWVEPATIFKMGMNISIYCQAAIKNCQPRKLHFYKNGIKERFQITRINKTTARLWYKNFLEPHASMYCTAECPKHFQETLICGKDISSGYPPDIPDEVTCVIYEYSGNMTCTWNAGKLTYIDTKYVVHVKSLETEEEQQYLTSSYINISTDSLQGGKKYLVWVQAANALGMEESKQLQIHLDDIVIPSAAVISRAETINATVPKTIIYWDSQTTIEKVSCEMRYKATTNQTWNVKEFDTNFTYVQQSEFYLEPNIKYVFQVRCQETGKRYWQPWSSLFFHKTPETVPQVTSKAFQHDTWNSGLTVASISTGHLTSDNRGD
In short: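 TR-FRET with IL-23α/IL-12β and IL-23R each at 0.3 nM in PPI buffer; compound preincubated with IL-23α/IL-12β 60 min at 25°C, then IL-23R and Tb/d2 detection reagents added for 60 min. HTRF 665/620 ratio; IC50 by nonlinear regression.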

[1] = molecular target: (Homo sapiens, UniProt Q5VWK5); experiment: IL-23-stimulated pSTAT3 detection assay in PBMCs (ELISA); assay type: cell-based; settings: rhIL23 stimulation 30 minutes, read-out: pSTAT3 inhibition/IC50
Method: 3. IL-23-stimulated pSTAT3 detection assay in PBMCs
Cryopreserved human PBMCs were thawed, and seeded onto a plate previously covered with an anti-CD3 antibody at 1 × 10^6 cells/well. Then, an anti-CD28 antibody was added to the plate, and the cells were incubated at 37°C with 5% CO2 for 5 days. On Day 5, the cells were seeded onto a 96-well plate at a density of 100K cells/well after 4 hours of stimulation by FBS starvation. The diluted Compound was transferred into the 96-well cell culture plate, and the plate was incubated at 37°C with 5% CO2 for 1 hour. rhIL23 (R&D, 1290-IL) was added to the cell culture plate, and the plate was incubated at 37°C with 5% CO2 for 30 minutes. The cells in the wells were lysed on ice with a lysis buffer containing 1× PHOSstop solution for 30 minutes, and the plate was centrifuged at 1000 rpm for 1 minute. Then, the supernatant was transferred into a 96-well ELISA plate, and pSTAT3 ELISA assay was performed according to the instructions of the kit (CST, 7300CA). Absorbance values at […] were read on PHERAstar FSX (BMG LRBTECH). The inhibition rate of the compounds was assessed using the following formula, and IC50 values were obtained by fitting with Graphpad.
as §1
The calculation formula of IC50 was as follows: Y = Bottom + (Top−Bottom)/(1+10^(∧)((LogIC50−X)*HillSlope)) [formula] • where X: concentration of compound; and • Y: inhibition rate of compound. Table 3. pSTAT3 inhibition

[2] = Pharmacokinetic test in mice (intravenous and intragastric, plasma LC-MS/MS); assay type: in vivo; settings: male, mouse, Balb/c mice
Method: 4. Pharmacokinetic test in mice
4.1. Experimental animals: Male Balb/c mice (20-25 g, 18 mice/compound) were purchased from Chengdu Dossy Experimental Animals Co., Ltd.
4.2. Experimental design: On the day of the experiment, the Balb/c mice were randomly grouped by body weight. The animals were fasted with water available for 12-14 h one day before the administration, and were fed 4 h after the administration. Table 4. Administration information
Before and after administration, 0.06 mL of blood was taken from the orbit under isoflurane anaesthesia, and placed in an EDTAK2 centrifuge tube. The tube was centrifuged at 5000 rpm at 4°C for 10 min, and plasma was collected. The blood collection time points for the intravenous group and intragastric group were both 0 min, 5 min, 15 min, 30 min, 1 h, 2 h, 4 h, 6 h, 8 h, and 24 h. Before analysis and detection, all samples were stored at -80°C, and the samples were quantitatively analysed by LC-MS/MS. Table 5. Pharmacokinetic parameters of test compounds in mouse plasma

Chain of (Homo sapiens, UniProt Q5VWK5) (Q9NPF7 20-189 partner, other chains not shown): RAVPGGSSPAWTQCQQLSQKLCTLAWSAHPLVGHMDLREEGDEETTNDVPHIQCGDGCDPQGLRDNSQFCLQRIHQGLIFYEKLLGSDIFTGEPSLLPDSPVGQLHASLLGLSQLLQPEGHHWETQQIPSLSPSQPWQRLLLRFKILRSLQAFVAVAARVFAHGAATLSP
Chain of (Homo sapiens, UniProt Q5VWK5) (P29460 23-328 partner, other chains not shown): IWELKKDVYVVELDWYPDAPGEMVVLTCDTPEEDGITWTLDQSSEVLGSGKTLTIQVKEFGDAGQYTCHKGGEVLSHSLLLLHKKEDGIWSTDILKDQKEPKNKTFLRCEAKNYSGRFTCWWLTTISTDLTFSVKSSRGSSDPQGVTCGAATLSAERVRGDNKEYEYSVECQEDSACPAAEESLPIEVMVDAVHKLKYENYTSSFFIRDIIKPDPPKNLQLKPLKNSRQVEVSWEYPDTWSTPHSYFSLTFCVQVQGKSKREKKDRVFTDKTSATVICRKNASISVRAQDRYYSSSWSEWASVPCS

SMILES: CC(=O)N[C@@H]1C(=O)N[C@@H](Cc2c[nH]cn2)C(=O)N[C@@H]([C@@H](C)O)C(=O)N[C@@H](Cc2c[nH]c3c(C4CC4)cccc23)C(=O)N[C@@H](CCC(N)=O)C(=O)N[C@H](C(=O)N[C@@H](Cc2ccc(OCCN)c3c2CCC3)C(=O)N[C@@H](Cc2ccc3ccccc3c2)C(=O)NC2(C(=O)N[C@@H](CCC(=O)O)C(=O)N[C@@H](CC(N)=O)C(=O)N[C@@H](Cc3cccnc3)C(=O)N(C)CC(N)=O)CCS(=O)(=O)CC2)C(C)(C)SSC1(C)C [Compound 16] (Ac-[Pen]HT[Trp(7-cPr)]Q[Pen][Phe(4-OC2H4NH2,2,3-(CH2)3)][2Nal][Thp(SO2)]EN[3Pal][Sar]-NH2; disulfide 1-6)
- IC50 (IL-23R): 6.07 nM
- IC50 (IL-23α/IL-12β and IL-23R): 0.063 nM
- IC50 [1]: 0.0069 nM
- AUC(0-t) ([2]; iv, i.v. (1 mg/kg)): 5440 ± 220 ng·h/mL
- clearance ([2]; iv, i.v. (1 mg/kg)): 3.06 ± 0.13 mL/min/kg
- Vd ([2]; iv, i.v. (1 mg/kg), read-out: Vdss): 0.378 ± 0.022 L/kg
- AUC(0-t) ([2]; po, i.g. (10 mg/kg)): 143 ± 13 ng·h/mL
- bioavailability ([2]; po, i.g. (10 mg/kg)): 0.263 ± 0.023%

Source: patent EP4729529A1, “PREPARATION OF PEPTIDE INHIBITOR OF INTERLEUKIN-23 RECEPTOR AND USE THEREOF” (Xizang Haisco Pharmaceutical Co., Ltd., priority 2023, dated 2024)
